Key:
Format in all cases: cell-based
[1] = biological target: T1, COX-1 (Homo sapiens, UniProt P23219); assay: COX-1 inhibition in HEL cells (Tromboxan B2 by ELISA)
T1 construct: Die Messung der COX1 Hemmung erfolgte in HEL-Zellen nach der Methode von Berg et al; endogenous in cells; host or cells: HEL cells
Experimental: (§1) In einer Variante wurden Testsubstanz und LPS zeitgleich eingesetzt. Die Messung der COX1 Hemmung erfolgte in HEL-Zellen nach der Methode von Berg et al., J. Pharmacol. Toxicol. Methods 37, 179-186 (1997). Dabei wurden HEL Zellen mit unterschiedlichen Konzentrationen der Testsubstanzen während 30 min inkubiert, anschliessend Arachidonsäure zugesetzt (Endkonzentration 30 µM), während 15 Min. inkubiert und das gebildete Tromboxan B2 mittels ELISA gemessen.

[2] = biological target: T2, COX-2 (Homo sapiens, UniProt P35354); assay: cell-based
T2 construct: Dazu wurden Mono Mac 6 Zellen mit unterschiedlichen Konzentrationen der Testsubstanzen während 30 min inkubiert; endogenous in cells; host or cells: Mono Mac 6 cells, LPS-stimulated
T2 sequence (P35354 18-604): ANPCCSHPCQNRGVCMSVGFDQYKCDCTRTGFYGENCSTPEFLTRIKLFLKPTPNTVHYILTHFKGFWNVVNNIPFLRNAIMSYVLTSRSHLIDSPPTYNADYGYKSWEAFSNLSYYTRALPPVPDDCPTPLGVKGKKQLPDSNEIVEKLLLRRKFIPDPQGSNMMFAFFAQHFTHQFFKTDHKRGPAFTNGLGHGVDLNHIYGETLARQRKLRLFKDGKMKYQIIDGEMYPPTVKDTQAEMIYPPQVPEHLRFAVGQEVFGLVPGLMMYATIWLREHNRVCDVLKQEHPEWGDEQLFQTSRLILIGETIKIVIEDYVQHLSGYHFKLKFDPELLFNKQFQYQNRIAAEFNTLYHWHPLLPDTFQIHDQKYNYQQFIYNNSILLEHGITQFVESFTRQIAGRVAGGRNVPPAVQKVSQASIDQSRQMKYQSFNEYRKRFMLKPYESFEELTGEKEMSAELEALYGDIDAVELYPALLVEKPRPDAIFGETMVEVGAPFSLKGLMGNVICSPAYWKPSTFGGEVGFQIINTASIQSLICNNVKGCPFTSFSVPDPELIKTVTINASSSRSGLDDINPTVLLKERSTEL
Experimental: Zur Bestimmung der COX-2-Hemmwirkung wurde allgemein nach der Methode von Berg et al., J. Pharmacol. Toxicol.
Dazu wurden Mono Mac 6 Zellen mit unterschiedlichen Konzentrationen der Testsubstanzen während 30 min inkubiert. Anschliessend wurde Lipopolysaccharid (LPS, 100 ng/ml) zupipettiert und nochmals sechs Stunden inkubiert. Anschliessend wurde Arachidonsäure zugegeben (Endkonzentration 30 µM), während 15 Min. inkubiert und das gebildete Keto-PGF1α mittels ELISA (Enzyme Linked Immuno Sorbent Assay) bestimmt.
as §1, with “Methods 37, 179-186 (1997).” left out, “gemessen. […]” for “gemessen.”

[3] = system: NF-κB; assay: NF-κB inhibition of test compounds, NF-κB binding to DNA by EMSA (Jurkat T cells and cell extracts); conditions: Jurkat T cells
Text: Bestimmt wurde dabei die in-vivo und die in-vitro NF-κB Bindung an DNA durch Messung der elektrophoretischen Mobilitätsverschiebung.
Die in vivo Bindung wurde mit Jurkat T-Zellen durchgeführt. Die Zellen wurden während einer Stunde mit verschiedenen Konzentrationen der verschiedenen Extrakte inkubiert und anschliessend mit TNF-α während einer Stunde stimuliert. Total-Protein-Extrakte der Zellen wurden gewonnen und in einem Assay auf elektrophoretische Mobilitätsverschiebung (electrophoretic mobility shift assay, EMSA) auf NF-κB-bindende Aktivität geprüft.
Die in vitro Bindung wurde ebenfalls mit Jurkat T-Zellen geprüft. Zellextrakle von stimulierten wie unstimulierten Zellen wurden gewonnen. Gleiche Proteinmengen (10-20 µg) wurden 2 Stunden mit Konzentrationsreihen der zu testenden Verbindungen inkubiert und schliesslich auf elektrophoretische Mobilitätsverschiebung (EMSA) analysiert.

T1 sequence (P23219 24-599): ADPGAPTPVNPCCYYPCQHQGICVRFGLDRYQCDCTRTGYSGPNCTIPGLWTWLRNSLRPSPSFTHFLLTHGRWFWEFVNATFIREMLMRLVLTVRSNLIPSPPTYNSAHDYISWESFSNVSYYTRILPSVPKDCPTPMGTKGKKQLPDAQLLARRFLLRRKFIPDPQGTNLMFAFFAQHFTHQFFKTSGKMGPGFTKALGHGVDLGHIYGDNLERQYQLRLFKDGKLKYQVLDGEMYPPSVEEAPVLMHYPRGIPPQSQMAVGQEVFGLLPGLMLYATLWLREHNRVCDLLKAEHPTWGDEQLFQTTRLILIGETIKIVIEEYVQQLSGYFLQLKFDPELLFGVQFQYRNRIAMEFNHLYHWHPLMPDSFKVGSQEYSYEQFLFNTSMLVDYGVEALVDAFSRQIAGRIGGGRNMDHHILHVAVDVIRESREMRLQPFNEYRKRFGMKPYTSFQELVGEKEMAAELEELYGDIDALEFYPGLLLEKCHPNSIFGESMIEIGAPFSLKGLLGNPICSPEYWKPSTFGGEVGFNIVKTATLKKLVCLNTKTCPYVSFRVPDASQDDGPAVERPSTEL

SMILES | IC50 [1] [nM] | IC50 [2] [nM] | NF-κB: Grenzkonzentration, bei der eben noch ein Hemmeffekt im EMSA feststellbar ist [3] | präferentielle Hemmung der induzierbaren COX-2 ([2]; COX-2 versus COX-1, statement on Table 2)
O=C1c2ccccc2-n2c1nc1ccccc1c2=O [Verbindung 1, Indolo[2,1-b]chinazolin-6,12-dion] | 2000 |  |  | 
O=C1c2ccccc2-n2c1nc1ccc(Cl)cc1c2=O [Verbindung 5] | 10000 | 2000 | 50 µM/Liter | 
O=C1c2cc(Cl)ccc2-n2c1nc1ccccc1c2=O [Verbindung 10] | 1000 | 500 | 5 µM/Liter | 
Nc1ccc2nc3n(c(=O)c2c1)-c1ccc(F)cc1C3=O [Verbindung 20] | 5000 | 500 | 5 µM/Liter | 
Cc1cc(C)c2nc3n(c(=O)c2c1)-c1ccc(F)cc1C3=O [Verbindung 24] | > 50000 | > 50000 | >100 µM/Liter | 
CN1CCN(c2ccc3c(=O)n4c(nc3c2)C(=O)c2cc(F)ccc2-4)CC1 [Verbindung 32] | 1000 | 1000 | 10 µM/Liter | 
CCOC(=O)c1ccc2c(c1)C(=O)c1nc3ccccc3c(=O)n1-2 [Verbindung 37] | > 50000 | > 50000 | >100 µM/Liter | 
CC1CN(c2cc3c(cc2F)C(=O)c2nc4ccccc4c(=O)n2-3)CCN1C(=O)OC(C)(C)C (centres unmarked) [Verbindung 42] | > 50000 | > 50000 | >100 µM/Liter | 
CCCCCCCCS(=O)(=O)c1ccc2c(c1)C(=O)c1nc3c(OC)cccc3c(=O)n1-2 [Verbindung 69] | > 50000 | > 50000 | >100 µM/Liter | 
O=C1c2cc(Cl)ccc2-n2c1nc1cc(N3CCOCC3)ccc1c2=O [Verbindung 86] | 5000 | 10 | 0,5 µM/Liter | besonders deutliche präferentielle Hemmung der induzierbaren COX-2
CN(CC(=O)O)c1ccc2c(=O)n3c(nc2c1)C(=O)c1cc(Cl)ccc1-3 [Verbindung 99] | 5000 | 500 | 1 µM/Liter | 
CN(CCO)c1ccc2c(=O)n3c(nc2c1)C(=O)c1cc(OC(F)(F)F)ccc1-3 [Verbindung 110] | 2000 | 500 | 5 µM/Liter | 
